Results: patent US20080139455A1, “COMPOUNDS AND METHODS OF TREATING METABOLIC SYNDROME AND INFLAMMATION” (Forbes Medi-Tech (Research), Inc., priority 2006, published 2008)

What was measured:
SPT [1] = target: T1, SPT (Homo sapiens, UniProt O15269+O15270); conditions: literature; cited from earlier work
T1 sequence (O15269 1-473): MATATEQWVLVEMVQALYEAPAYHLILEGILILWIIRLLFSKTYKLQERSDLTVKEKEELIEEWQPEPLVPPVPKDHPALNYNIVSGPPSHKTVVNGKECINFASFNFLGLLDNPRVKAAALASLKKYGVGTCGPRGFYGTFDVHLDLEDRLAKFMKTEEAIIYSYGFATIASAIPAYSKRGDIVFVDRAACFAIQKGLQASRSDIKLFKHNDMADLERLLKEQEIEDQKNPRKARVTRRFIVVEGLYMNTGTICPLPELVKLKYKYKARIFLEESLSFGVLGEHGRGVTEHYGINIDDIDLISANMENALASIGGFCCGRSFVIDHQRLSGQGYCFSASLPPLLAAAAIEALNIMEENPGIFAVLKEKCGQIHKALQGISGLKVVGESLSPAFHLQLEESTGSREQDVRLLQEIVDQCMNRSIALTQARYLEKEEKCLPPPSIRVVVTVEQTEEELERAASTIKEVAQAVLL
T1 sequence (O15270 1-562): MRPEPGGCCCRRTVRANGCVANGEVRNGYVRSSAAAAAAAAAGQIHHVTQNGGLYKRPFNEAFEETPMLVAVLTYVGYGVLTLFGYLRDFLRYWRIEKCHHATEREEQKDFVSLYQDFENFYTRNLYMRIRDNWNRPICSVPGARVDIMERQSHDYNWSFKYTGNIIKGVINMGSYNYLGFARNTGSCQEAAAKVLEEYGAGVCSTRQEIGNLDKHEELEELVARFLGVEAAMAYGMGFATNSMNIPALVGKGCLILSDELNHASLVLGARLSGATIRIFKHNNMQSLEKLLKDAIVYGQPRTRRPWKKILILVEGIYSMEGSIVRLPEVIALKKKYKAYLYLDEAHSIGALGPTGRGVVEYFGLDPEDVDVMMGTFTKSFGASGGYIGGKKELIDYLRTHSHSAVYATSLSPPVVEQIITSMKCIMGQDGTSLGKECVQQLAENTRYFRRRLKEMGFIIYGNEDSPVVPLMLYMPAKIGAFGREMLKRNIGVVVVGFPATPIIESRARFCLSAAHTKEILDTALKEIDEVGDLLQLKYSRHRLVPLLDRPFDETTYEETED

[2] = system: diabetic Zucker fatty rat model; conditions: literature; cited from earlier work
SPT [3] = target: T1, SPT; test: Serine palmitoyltransferase activity, Assay C ([3H]serine incorporation into lipids, cell homogenates); type: biochemical; conditions: 37° C. for 20 min, at the doses indicated
Procedure: An alternative assay for evaluating inhibition of SPT, the enzyme present in commonly cultured cells, is performed with CHO cells or a human cell line. Cells are washed three times with ice-cold phosphate-buffered saline (PBS). A total of 0.5 mL of lysis buffer [50 mM Hepes (pH 8.0) containing 5 mM ethylenediaminetetraacetic acid (EDTA) and 5 mM dithiothreitol (DTT)] is added to each dish. The cells are scraped using a rubber policeman, and are then transferred to a test tube on ice. The cell suspension is sonicated three times for 5 s at 1-2 min intervals on ice. Protein concentrations in cell homogenates are measured using a Bradford protein assay kit (Bio-Rad). […] The radioactivity is measured with a LS6000TA liquid scintillation counter (Beckman). Nonspecific conversion of [^3H] serine to chloroform-soluble species is determined by performing the assay in the absence of palmitoyl CoA. […]
An alternative assay using a non-chlorinated solvent modification of the Blye and Dyer lipid extraction method reported in Smedes (Smedes, F. (1999) Analyst 124, 1711-18) is employed to evaluate exemplary compounds. […] An accurately measured portion of the organic layer (4.0 ml) is added to a scintillation vial with 1 ml of water. […] The amount of [^3H] serine radioactivity incorporated into lipids is quantified in a scintillation counter. […]

mice = conditions: literature, cited from earlier work; for protective effect / prevention of progression of emphysema: VEGF receptor blockade model
ApoE knockout mice = conditions: literature; cited from earlier work
Rat pancreatic islets = test: Protection of islets by an SPT inhibitor (propidium iodide staining, flow cytometry); type: cell-based; conditions: 3 days
Procedure: Islet protection by an exemplary compound is evaluated in an assay according to Eitel, K, et al. Biochem. Biophys. Res. Commun. 299: 853-6 (2002), and results obtained in this assay are reported below in Table 4. Rat pancreatic islets are cultured with control medium (RPMI 1640 supplemented with 10% fetal bovine serum, antibiotics and made 8% in glucose) or in medium supplemented with I millimolar sodium palmitate (Fatty Acid Medium) during a period of 3 days. The culture medium is changed after 2 days to an identical composition culture medium with fresh inhibitor in the appropriate wells. Cells are stained with propidium iodide (PI), washed and propidium staining of cells (as a measure of cellular DNA content) is assessed by flow cytometry. The percentage of cells having less than the normal amount of PI staining is considered to be apoptotic cells (Eitel, K, et al. (2002)).

Row | SMILES | activity against / inhibition of SPT (SPT [1]) | inhibition of SPT ([3H] serine radioactivity incorporated into lipids) (SPT [3]) | protective effect / prevention of progression of emphysema (mice) | other results
1 | N[C@@H]1CON=C1O [cycloserine] | weak inhibition | – | – | beta cell protective effect [2]: ≈ 50%
2 | CCCCCCC(=O)CCCCCC/C=C/C[C@@H](O)[C@H](O)[C@@](N)(CO)C(=O)O [ISP-1] | – | potent but non-selective inhibition | very strong protective effect | IC50 for inhibition of SPT (SPT [1]): sub-nanomolar; atherosclerotic plaque (ApoE knockout mice): dramatic reduction in atherosclerotic plaque
3 | CCCCCCCCc1ccc(CCC(N)(CO)C(=O)O)cc1 (stereo not shown) [compound 2] | did not exhibit activity against SPT | – | – | –
4 | CCCCCCCCc1ccc(CCC(N)(CO)CO)cc1 [FTY720] | do not inhibit SPT | – | – | –
5 | CCCCCCCOc1cccc(CCC(O)C(O)C(N)C(=O)O)c1 (stereo not shown) [Compound 12] | – | moderate activity | – | protection of islet cells from fatty acid treatment (apoptotic cells by PI staining) (Rat pancreatic islets; medium with sodium palmitate (Fatty Acid Medium)): fully protect cells from the fatty acid treatment; benefit in comparison to treatment with the control medium (apoptotic cells by PI staining) (Rat pancreatic islets; versus control medium): imparts a benefit in comparison to treatment with the control medium
6 | CCCC[C@@H](C)[C@@H](OC(=O)C[C@@H](CC(=O)O)C(=O)O)[C@H](C[C@@H](C)C[C@H](O)CCCC[C@@H](O)C[C@H](O)[C@H](C)N)OC(=O)C[C@@H](CC(=O)O)C(=O)O [fumonisin B1] | – | – | less effective | toxicity (mice; emphysema model, higher doses): some toxicity at higher doses
